Results as given in US20040157837A1, “Combinations for the treatment of fungal infections” (priority 2002, published 2004).

Legend:
Candida albicans MYA 573 = assay: Anti-proliferation assay, Candida albicans MYA 573; assay type: cell-based; details: MYA573, Amphotericin B 0.00 μM (r16), read-out: Percent inhibition of proliferation
Text: (§1) Using the method described below, we tested the ability of the combination of various concentrations of amphotericin B plus disulfiram to inhibit the proliferation of numerous yeast strains using particle density as an indicator of cell number.
(§2) Two clinical Candida albicans isolates (one triazole-resistant strain and one triazole-susceptible strain) were obtained from the culture collection if the Seattle Biomedical Research Institute (Seattle, Wash.). Additional fungal strains were obtained from the American Type Culture Collection triazole-resistant C. albicans: ATCC MYA-573, C. glabrata: ATCC 90030. Yeast cultures were stored in 15% glycerol at −70° C. Isolates were cultured in growth medium (RPMI 1640; 2% glucose without NaHCO3 and phenol red, buffered with 0.165 M MOPS to pH 7.0) at 35° C. for 24 hours prior to in vitro susceptibility testing. All media reagents were purchased from Sigma Chemical Co. (St. Louis, Mo.).
(§3) The following compounds were used: disulfiram and amphotericin B (both from Sigma Chemical Co.). In the anti-proliferation experiments, Gentian Violet was used as a positive control for antifungal activity. Stock solutions of each compound were prepared in DMSO and stored at −20° C. Prior to use, stock solutions were diluted in RPMI to produce 10× solutions. 10× disulfiram (0-7 μL) and 10× amphotericin B (0-7 μL) were then plated in 40 μL of in 384 well microtiter plates to form a matrix of compound combinations.
(§4) All antifungal susceptibility testing was performed according to document M-27A as published by the National Committee for Clinical Laboratory Standards (Reference Method for Broth Dilution Antifungal Susceptibility Testing of Yeasts (1997), Wayne, Pa.). Briefly, yeast inocula from overnight cultures were standardized to a turbidity equivalent to a 0.5 McFarland Standard using a spectrophotometer at 530 nm, giving rise to a stock solution of 1×10^6 cells/mL. Each yeast suspension was further diluted in growth medium to yield a final inoculum concentration of approximately 4×10^3 cells/mL. Forty microlitres of the inoculum were used to inoculate each well, resulting in a final concentration of 2×10^3 cells/mL. Drug-free controls were included on each plate. Plates were incubated for 16 hours at 32° C. The amount of cell growth was determined by particle density as read on a Nephelometer (BMG Lab Technologies; Durham, N.C.).

Candida glabrata = assay: Anti-proliferation assay, Candida glabrata; assay type: cell-based; details: Nakaseomyces glabratus, Amphotericin B 0.00 μM (r15), read-out: Percent inhibition of proliferation
Text: as §1, §2, §3, §4

[1] = cited from earlier work
Aspergillus fumigatus = assay: Anti-proliferation assay, Aspergillus fumigatus; assay type: cell-based; details: Amphotericin B 0.00 μM, read-out: Percent inhibition of proliferation
Method: as §1
The Aspergillus fumigatus strain was obtained from the American Type Culture Collection (ATCC 46645). Aspergillus cultures were stored in 15% glycerol at −70° C. Isolates were cultured on Sabouraud glucose (SAB) agar plates at 37° C. for 5 to 7 days. Condidia were collected by addung 5 to 10 mL of sterile saline containing 0.05% Tween 20 to the plates and loosening condidia with a swab. Using a pipette, condidia were collected suspension and placed in a sterile bottle. This was repeated for all plates. After harvesting the suspension was filtered through gauze into a clean, sterile bottle. The turbidity of the supernatants was measured spectrophometrically at 530 nm and the transmission adjusted to 80-82% with PBS (with 0.05% Tween 20) to yield an initial suspension of 1×10^6 CFU/mL.
as §3, §4

[2] = tested on: Candida albicans Strain 1; assay: Anti-proliferation assay, Candida albicans Strain 1; assay type: cell-based; details: STRAIN1, Amphotericin B 0.00 μM (r16), read-out: Percent inhibition of proliferation
Text: as §1, §2, §3, §4

[3] = tested on: Candida albicans Strain 17; assay: Anti-proliferation assay, Candida albicans Strain 17; assay type: cell-based; details: STRAIN17, Amphotericin B 0.00 μM (r16), read-out: Percent inhibition of proliferation
Text: as §1, §2, §3, §4

## CCN(CC)C(=S)SSC(=S)N(CC)CC [Disulfiram, bis(diethylthiocarbamoyl) disulfide]
Candida albicans MYA 573; Disulfiram 0.01 μM
  inhibition at 0.01 µM: -5.62%
Candida albicans MYA 573; Disulfiram 0.02 μM
  inhibition at 0.02 µM: 1.7%
Candida albicans MYA 573; Disulfiram 0.04 μM
  inhibition at 0.04 µM: 10.3%
Candida albicans MYA 573; Disulfiram 0.07 μM
  inhibition at 0.07 µM: 25.2%
Candida albicans MYA 573; Disulfiram 0.14 μM
  inhibition at 0.14 µM: 39.3%
Candida albicans MYA 573; Disulfiram 0.28 μM
  inhibition at 0.28 µM: 55.6%
Candida albicans MYA 573; Disulfiram 0.56 μM
  inhibition at 0.56 µM: 78.3%
Candida albicans MYA 573; Disulfiram 1.12 μM
  inhibition at 1.12 µM: 95%
Candida glabrata; Disulfiram 0.01 μM
  inhibition at 0.01 µM: -10.4%
Candida glabrata; Disulfiram 0.02 μM
  inhibition at 0.02 µM: -1.67%
Candida glabrata; Disulfiram 0.04 μM
  inhibition at 0.04 µM: 1.52%
Candida glabrata; Disulfiram 0.07 μM
  inhibition at 0.07 µM: 1.92%
Candida glabrata; Disulfiram 0.14 μM
  inhibition at 0.14 µM: 2.12%
Candida glabrata; Disulfiram 0.28 μM
  inhibition at 0.28 µM: 19.6%
Candida glabrata; Disulfiram 0.56 μM
  inhibition at 0.56 µM: 61.3%
Candida glabrata; Disulfiram 1.12 μM
  inhibition at 1.12 µM: 88.7%
[1]; alcohol
  soluble in alcohol: about 3.8 mg/100 mL
[1]; water
  soluble in water: about 20 mg/100 mL
Aspergillus fumigatus; Disulfiram 0.04 μM
  inhibition at 0.04 µM: 0.66%
Aspergillus fumigatus; Disulfiram 0.08 μM
  inhibition at 0.08 µM: -2.93%
Aspergillus fumigatus; Disulfiram 0.16 μM
  inhibition at 0.16 µM: -2.21%
Aspergillus fumigatus; Disulfiram 0.31 μM
  inhibition at 0.31 µM: -13.1%
Aspergillus fumigatus; Disulfiram 0.63 μM
  inhibition at 0.63 µM: -0.75%
Aspergillus fumigatus; Disulfiram 1.25 μM
  inhibition at 1.25 µM: 6.07%
Aspergillus fumigatus; Disulfiram 2.50 μM
  inhibition at […]: 14.9%
Aspergillus fumigatus; Disulfiram 5.00 μM
  inhibition at 5 µM: 31.7%
Aspergillus fumigatus; Disulfiram 10.00 μM
  inhibition at 10 µM: 37.2%
[2]; Disulfiram 0.01 μM
  inhibition at 0.01 µM: 5.3%
[2]; Disulfiram 0.02 μM
  inhibition at 0.02 µM: 9.08%
[2]; Disulfiram 0.04 μM
  inhibition at 0.04 µM: 10.1%
[2]; Disulfiram 0.07 μM
  inhibition at 0.07 µM: 11.7%
[2]; Disulfiram 0.14 μM
  inhibition at 0.14 µM: 18.2%
[2]; Disulfiram 0.28 μM
  inhibition at 0.28 µM: 26.9%
[2]; Disulfiram 0.56 μM
  inhibition at 0.56 µM: 54.5%
[2]; Disulfiram 1.12 μM
  inhibition at 1.12 µM: 89.6%
[3]; Disulfiram 0.01 μM
  inhibition at 0.01 µM: -3.64%
[3]; Disulfiram 0.02 μM
  inhibition at 0.02 µM: -0.03%
[3]; Disulfiram 0.04 μM
  inhibition at 0.04 µM: -0.15%
[3]; Disulfiram 0.07 μM
  inhibition at 0.07 µM: 2.27%
[3]; Disulfiram 0.14 μM
  inhibition at 0.14 µM: 2.66%
[3]; Disulfiram 0.28 μM
  inhibition at 0.28 µM: 22.9%
[3]; Disulfiram 0.56 μM
  inhibition at 0.56 µM: 30.5%
[3]; Disulfiram 1.12 μM
  inhibition at 1.12 µM: 53.4%
